Experimental data from article PMC11822212, “High-throughput screening identifies Aurora kinase B as a critical therapeutic target for Merkel cell carcinoma” (Nature Communications, 2025).
“And” between values parts separate entries of the source, which are not always exact repeats. Equal entries are not always repeated.

Tests used:
Experiment in all cases: qHTS cell viability (CellTiter-Glo, 72 h; primary and follow-up small molecule screen)
Assay type in all cases: cell-based, human
[1] = test system: MCC13 cells (VN-MCC); conditions: for Area under the dose-response curve (AUC) MCC13 Replicate 1 / Area under the dose-response curve (AUC) MCC13 Replicate 2 / Area under the dose-response curve (AUC) MCC13 Replicate 3: follow-up screen
[2] = test system: MCC26 cells (VN-MCC); conditions: for Area under the dose-response curve (AUC) MCC26 Replicate 1 / Area under the dose-response curve (AUC) MCC26 Replicate 2 / Area under the dose-response curve (AUC) MCC26 Replicate 3: follow-up screen
[3] = test system: UISO cells (VN-MCC); conditions: for Area under the dose-response curve (AUC) UISO Replicate 1 / Area under the dose-response curve (AUC) UISO Replicate 2 / Area under the dose-response curve (AUC) UISO Replicate 3: follow-up screen
[4] = test system: WAGA cells (VP-MCC); conditions: for Area under the dose-response curve (AUC) WAGA Replicate 1 / Area under the dose-response curve (AUC) WAGA Replicate 2 / Area under the dose-response curve (AUC) WAGA Replicate 3: follow-up screen
[5] = test system: MKL-1 cells (VP-MCC); conditions: for Area under the dose-response curve (AUC) MKL-1 Replicate 1 / Area under the dose-response curve (AUC) MKL-1 Replicate 2 / Area under the dose-response curve (AUC) MKL-1 Replicate 3: follow-up screen
[6] = test system: MKL-2 cells (VP-MCC); conditions: for Area under the dose-response curve (AUC) MKL-2 Replicate 1 / Area under the dose-response curve (AUC) MKL-2 Replicate 2 / Area under the dose-response curve (AUC) MKL-2 Replicate 3: follow-up screen

Fc1ccc2[nH]ccc2c1-c1nc(N2CCOCC2)c2sc(CN3CCN(CC4CC4)CC3)cc2n1 [PI-3065]
Area under the dose-response curve (AUC) [1]: 491.4 and 471.7 and 470.9
Area under the dose-response curve (AUC) [2]: 439.2 and 434.6 and 464.1
Area under the dose-response curve (AUC) [3]: 477.0 and 474.8 and 437.8
Area under the dose-response curve (AUC) [4]: 514.3 and 478.8 and 484.1
Area under the dose-response curve (AUC) [5]: 492.3 and 479.8 and 465.2
Area under the dose-response curve (AUC) [6]: 468.3 and 439.3 and 471.2

C[C@]12CCC(=NOCCN)C[C@@H]1C(=O)C[C@@H]1[C@@H]2CC[C@]2(C)C(=O)CC[C@@H]12 [PST-2744 (Istaroxime)]
Area under the dose-response curve (AUC) [1]: 404.5 and 430.7 and 432.5
Area under the dose-response curve (AUC) [2]: 394.3 and 428.5 and 414.9
Area under the dose-response curve (AUC) [3]: 410.4 and 435.6 and 412.5
Area under the dose-response curve (AUC) [4]: 454.8 and 457.0 and 435.6
Area under the dose-response curve (AUC) [5]: 437.3 and 438.4 and 450.7
Area under the dose-response curve (AUC) [6]: 441.0 and 431.1 and 445.6

Cc1cc(Nc2ncc3c(n2)N(C)C(=O)N(c2cc(NC(=O)c4cccc(C(F)(F)F)c4)ccc2C)C3)n(C)n1 [Pluripotin]
Area under the dose-response curve (AUC) MCC13 Replicate 1 [1]: 368.1
Area under the dose-response curve (AUC) MCC13 Replicate 2 [1]: 352.7
Area under the dose-response curve (AUC) MCC13 Replicate 3 [1]: 330.6
Area under the dose-response curve (AUC) MCC26 Replicate 1 [2]: 306.5
Area under the dose-response curve (AUC) MCC26 Replicate 2 [2]: 289.3
Area under the dose-response curve (AUC) MCC26 Replicate 3 [2]: 278.9
Area under the dose-response curve (AUC) UISO Replicate 1 [3]: 341.8
Area under the dose-response curve (AUC) UISO Replicate 2 [3]: 376.4
Area under the dose-response curve (AUC) UISO Replicate 3 [3]: 360.3
Area under the dose-response curve (AUC) WAGA Replicate 1 [4]: 419.3
Area under the dose-response curve (AUC) WAGA Replicate 2 [4]: 439.3
Area under the dose-response curve (AUC) WAGA Replicate 3 [4]: 440.2
Area under the dose-response curve (AUC) MKL-1 Replicate 1 [5]: 453.5
Area under the dose-response curve (AUC) MKL-1 Replicate 2 [5]: 477.1
Area under the dose-response curve (AUC) MKL-1 Replicate 3 [5]: 466.2
Area under the dose-response curve (AUC) MKL-2 Replicate 1 [6]: 435.4
Area under the dose-response curve (AUC) MKL-2 Replicate 2 [6]: 458.3
Area under the dose-response curve (AUC) MKL-2 Replicate 3 [6]: 471.4

CO[C@H]1/C=C/O[C@@]2(C)Oc3c(C)c(O)c4c(O)c(c(/C=N/N5CCN(C6CCCC6)CC5)c(O)c4c3C2=O)NC(=O)/C(C)=C\C=C\[C@H](C)[C@H](O)[C@@H](C)[C@@H](O)[C@@H](C)[C@H](OC(C)=O)[C@@H]1C [Rifapentine]
Area under the dose-response curve (AUC) MCC13 Replicate 1 [1]: 505.1
Area under the dose-response curve (AUC) MCC13 Replicate 2 [1]: 494.8
Area under the dose-response curve (AUC) MCC13 Replicate 3 [1]: 490.8
Area under the dose-response curve (AUC) MCC26 Replicate 1 [2]: 454.9
Area under the dose-response curve (AUC) MCC26 Replicate 2 [2]: 422.8
Area under the dose-response curve (AUC) MCC26 Replicate 3 [2]: 488.5
Area under the dose-response curve (AUC) UISO Replicate 1 [3]: 475.3
Area under the dose-response curve (AUC) UISO Replicate 2 [3]: 482.1
Area under the dose-response curve (AUC) UISO Replicate 3 [3]: 453.0
Area under the dose-response curve (AUC) WAGA Replicate 1 [4]: 525.4
Area under the dose-response curve (AUC) WAGA Replicate 2 [4]: 514.7
Area under the dose-response curve (AUC) WAGA Replicate 3 [4]: 508.3
Area under the dose-response curve (AUC) MKL-1 Replicate 1 [5]: 466.1
Area under the dose-response curve (AUC) MKL-1 Replicate 2 [5]: 446.1
Area under the dose-response curve (AUC) MKL-1 Replicate 3 [5]: 500.1
Area under the dose-response curve (AUC) MKL-2 Replicate 1 [6]: 477.3
Area under the dose-response curve (AUC) MKL-2 Replicate 2 [6]: 488.3
Area under the dose-response curve (AUC) MKL-2 Replicate 3 [6]: 494.1

CCc1c2c(nc3ccc(O)cc13)-c1cc3c(c(=O)n1C2)COC(=O)[C@]3(O)CC [SN-38]
Area under the dose-response curve (AUC) MCC13 Replicate 1 [1]: 218.6
Area under the dose-response curve (AUC) MCC13 Replicate 2 [1]: 222.5
Area under the dose-response curve (AUC) MCC13 Replicate 3 [1]: 261.5
Area under the dose-response curve (AUC) MCC26 Replicate 1 [2]: 201.3
Area under the dose-response curve (AUC) MCC26 Replicate 2 [2]: 194.5
Area under the dose-response curve (AUC) MCC26 Replicate 3 [2]: 189.1
Area under the dose-response curve (AUC) UISO Replicate 1 [3]: 127.3
Area under the dose-response curve (AUC) UISO Replicate 2 [3]: 148.1
Area under the dose-response curve (AUC) UISO Replicate 3 [3]: 144.2
Area under the dose-response curve (AUC) WAGA Replicate 1 [4]: 143.8
Area under the dose-response curve (AUC) WAGA Replicate 2 [4]: 150.1
Area under the dose-response curve (AUC) WAGA Replicate 3 [4]: 140.2
Area under the dose-response curve (AUC) MKL-1 Replicate 1 [5]: 135.7
Area under the dose-response curve (AUC) MKL-1 Replicate 2 [5]: 150.7
Area under the dose-response curve (AUC) MKL-1 Replicate 3 [5]: 162.0
Area under the dose-response curve (AUC) MKL-2 Replicate 1 [6]: 131.4
Area under the dose-response curve (AUC) MKL-2 Replicate 2 [6]: 119.7
Area under the dose-response curve (AUC) MKL-2 Replicate 3 [6]: 221.9
